Literature values as cited in EP0486445A2, “Polyfunctional derivatives of cyclodextrin” (Chiellini, Emo, priority 1990, dated 1992).

Experiments:
[1] = compared to the starting cyclodextrin
[2] = compared to the starting cyclodextrin; degree of substitution lower than 7

| water solubility [1] | Molecule | toxicity [2] |
| --- | --- | --- |
| much more water soluble | COC[C@H]1O[C@@H]2O[C@H]3[C@H](O)[C@@H](OC)[C@@H](O[C@H]4[C@H](O)[C@@H](OC)[C@@H](O[C@H]5[C@H](O)[C@@H](OC)[C@@H](O[C@H]6[C@H](O)[C@@H](OC)[C@@H](O[C@H]7[C@H](O)[C@@H](OC)[C@@H](O[C@H]8[C@H](O)[C@@H](OC)[C@@H](O[C@H]1[C@H](O)[C@H]2OC)O[C@@H]8COC)O[C@@H]7COC)O[C@@H]6COC)O[C@@H]5COC)O[C@@H]4COC)O[C@@H]3COC [DM-β CD, eptakis-(2,6-O-dimethyl)-β-cyclodextrin] | – |
| much larger water solubility | hydroxyethyl-β-cyclodextrin [HE- βCD] | lower toxicity |
| much larger water solubility | 2-hydroxypropyl- β-cyclodextrin [HP- βCD] | lower toxicity |
